Tests used:
[1] = molar heat capacity at constant pressure; conditions: Liquid, Flow calorimetry
[2] = molar heat capacity at constant pressure; wn = mass fraction of the nth substance listed; conditions: Liquid, Flow calorimetry, w2 = 0.995

CCO [ethanol]
molar heat capacity at constant pressure [J/K/mol], [1]
Conditions	100 kPa	5000 kPa	10000 kPa	15000 kPa	20000 kPa
273.17 K	103.42	103.1	102.18	101.77	100.8
293.16 K	111.62	111.02	109.97	108.95	108.21
313.18 K	120.47	119.09	117.7	116.78	115.68
333.19 K	130.65	129.73	128.35	126.83	125.91

COC(F)(F)C(F)(F)C(F)(F)F [heptafluoropropyl methyl ether]
[1]
Conditions	molar heat capacity at constant pressure [J/K/mol]
255.05 K, 100 kPa	233.26
255.06 K, 10000 kPa	230.06
255.06 K, 15000 kPa	229.26
255.08 K, 5000 kPa	231.26
266.01 K, 100 kPa	240.27
266.01 K, 5000 kPa	238.67
266.02 K, 10000 kPa	237.06
266.03 K, 15000 kPa	236.46
275.04 K, 100 kPa	245.47
275.04 K, 15000 kPa	241.27
275.05 K, 5000 kPa	244.27
275.11 K, 10000 kPa	242.47
284.81 K, 100 kPa	251.87
284.81 K, 5000 kPa	250.07
284.86 K, 10000 kPa	248.67
284.94 K, 15000 kPa	247.47
294.05 K, 100 kPa	257.67
294.07 K, 5000 kPa	255.47
294.08 K, 10000 kPa	254.47
294.1 K, 15000 kPa	253.67

COC(F)(F)C(F)(C(F)(F)F)C(F)(F)F [methyl nonafluoroisobutyl ether] + COC(F)(F)C(F)(F)C(F)(F)C(F)(F)F
[2]
Conditions	molar heat capacity at constant pressure [J/K/mol]
253.15 K, 5000 kPa	209.05
253.16 K, 10000 kPa	207.55
253.16 K, 15000 kPa	205.55
253.17 K, 100 kPa	214.05
264.15 K, 15000 kPa	227.11
264.16 K, 5000 kPa	230.61
264.17 K, 100 kPa	232.86
264.18 K, 10000 kPa	228.61
274.59 K, 15000 kPa	249.36
274.63 K, 100 kPa	257.81
274.63 K, 5000 kPa	252.81
274.63 K, 10000 kPa	250.86
284.25 K, 10000 kPa	273.79
284.26 K, 100 kPa	278.04
284.27 K, 5000 kPa	275.79
284.3 K, 15000 kPa	272.29
294.09 K, 5000 kPa	297.5
294.09 K, 10000 kPa	294.82
294.1 K, 100 kPa	300.52
294.13 K, 15000 kPa	294
303.94 K, 10000 kPa	317.35
303.95 K, 100 kPa	321.61
303.96 K, 5000 kPa	319.35
303.96 K, 15000 kPa	315.85
314.92 K, 100 kPa	347.39
314.92 K, 5000 kPa	345.14
314.92 K, 10000 kPa	342.34
314.92 K, 15000 kPa	340.08
323.71 K, 100 kPa	374.09
323.72 K, 5000 kPa	369.47
323.73 K, 10000 kPa	367.47
323.74 K, 15000 kPa	364.84

Reference: the NIST ThermoML archive (doi:10.1016/j.fluid.2016.06.024)
